Experimental findings from article PMC5109658, “Antibacterial and cytotoxic cytochalasins from the endophytic fungus Phomopsis sp. harbored in Garcinia kola (Heckel) nut” (BMC Complementary and Alternative Medicine, 2016) are described below.

Each structure is given as a SMILES string. ≈ marks a conversion by molar mass, not a printed value.

For one data set, the system named is S. aureus ATCC 25923. In words: Broth microdilution MIC/MBC. The data set is classed as cell-based, Staphylococcus aureus. The method, then: (§1) A total of six bacterial strains were tested for their susceptibility to compounds and these strains were taken from our laboratory collection (kindly provided by Dr. T. Ramamurthy, NICED, Kolkata). Among the clinical strains of Vibrio cholerae used in this study, strains NB2 and SG24 and CO6 belonged to O1 and O139 serotypes, respectively. […]. The other strains used in this study were V. cholerae non-O1, non-O139 (strain PC2); […]. The American Type Culture Collection (ATCC) strain, Staphylococcus aureus ATCC 25923, was used for quality control. The bacterial strains were maintained on agar slant at 4 °C and subcultured on a fresh appropriate agar plates 24 h prior to any antibacterial test. The Mueller Hinton Agar (MHA) was used for the activation of bacteria. The Mueller Hinton Broth (MHB) and nutrient agar (Hi-Media) were used for the MIC and MBC determinations respectively.
(§2) Suspensions of bacteria were prepared in MHB from cells arrested during their logarithmic phase growth (4 h) on MHB at 37 °C. The turbidity of the microbial suspension was read spectrophotometrically at 600 nm and adjusted to an OD of 0.1 with MHB, which is equivalent to 1 × 10^8 CFU/mL. From this prepared solution, other dilutions were made with MHB to yield 1x10^6 CFU/mL.
(§3) MIC and MBC of compounds 1–3 were assessed using the broth microdilution method recommended by the National Committee for Clinical Laboratory Standards with slight modifications. Each test sample was dissolved in dimethylsulfoxide (DMSO) to give a stock solution. The 96-well round bottom sterile plates were prepared by dispensing 180 μL of the inoculated broth (1x10^6 CFU/mL) into each well. A 20 μL aliquot of the stock solution of compound was added. The concentrations of sample tested were 0.125, 0.25, 0.50, 1, 2, 4, 8, 16, 32, 64, 128, 256 and 512 μg/mL. […] Dilutions of tetracycline and ampicillin served as positive controls, while broth with 20 μL of DMSO was used as negative control. The ATCC strain Staphylococcus aureus ATCC 25923 was included for quality assurance purposes. Plates were covered and incubated for 24 h at 37 °C. After incubation, minimum inhibitory concentrations (MIC) were read visually; all wells were plated to nutrient agar (Hi-Media) and incubated. The minimal bactericidal concentration (MBC) was defined as a 99.9% reduction in CFU from the starting inoculums after 24 h incubation interval.
Background: In broth dilution the organism is exposed to a series of concentrations in liquid medium.

The subject of data set [1] is studied microorganisms (six bacterial strains). In words: Antibacterial spectrum over the six tested strains (broth microdilution). As to conditions: out of 6 strains; concentrations up to 512 μg/mL. The data set is classed as cell-based. How it is done:
as §1, §3

Another data set has as its system V. cholerae PC2. Description: Broth microdilution MIC/MBC. The data set is classed as cell-based, Vibrio cholerae. How it is done: as §1, §2, §3
The next data set deals with V. cholerae NB2. Description: Broth microdilution MIC/MBC. In kind it is cell-based, Vibrio cholerae. How it is done: as §1, §2, §3
In a further data set the test system is V. cholerae CO6. Description: Broth microdilution MIC/MBC. The data set is classed as cell-based, Vibrio cholerae. How it is done: as §1, §2, §3
Another data set has as its system V. cholerae SG24. Description: Broth microdilution MIC/MBC. The data set is classed as cell-based, Vibrio cholerae. As to conditions: Vibrio cholerae. How it is done: as §1, §2, §3
Another data set is described as follows: Hemolytic assay. The data set is classed as cell-based. The settings on record: male, 1% human red blood cell suspension, 512 μg/mL (highest concentration tested), 1% human red blood cells, PBS pH 7.4, 37 °C. The method, then: Whole blood (10 mL) from a healthy person was collected into a conical tube containing heparin as an anticoagulant. Erythrocytes were harvested by centrifugation at room temperature for 10 min at 1,000 × g and were washed three times in PBS solution. The top layer (plasma) and the next, milky layer (buffy coat with a layer of platelets on top of it) were then carefully aspirated and discarded. The cell pellet was resuspended in 10 mL of PBS solution and mixed by gentle aspiration with a Pasteur pipette. This cell suspension was used immediately.
For the normal human red blood cells, which were in suspension, the cytotoxicity was evaluated as previously described. Compounds 1–3, at concentrations ranging from 32 to 512 μg/mL, were incubated with an equal volume of 1% human red blood cells in phosphate buffered saline (10 mM PBS, pH 7.4) at 37 °C for 1 h. Tetracycline was tested simultaneously. Non-hemolytic and 100% hemolytic controls were the buffer alone and the buffer containing 1% Triton X-100, respectively. Cell lysis was monitored by measuring the release of hemoglobin at 595 nm with a spectrophotometer (Thermo Scientific, USA). Percent hemolysis was calculated as follows: [(A595 of sample treated with compound - A595 of sample treated with buffer)/(A595 of sample treated with Triton X-100 – A595 of sample treated with buffer)] x 100.

One may read the MBC as the smallest concentration meeting the test's criterion for killing. High values mean less potent killing, low ones more potent killing. A word on the MIC: it is the lowest concentration that inhibits growth of the organism. For the compound `C=C1[C@@H](C)C2[C@H](Cc3ccccc3)NC(=O)[C@@]23C(/C=C/C[C@H](C)C[C@@](C)(O)/C=C/[C@H]3OC(C)=O)[C@@H]1O` (some centres unmarked) [Compound 2, cytochalasin H], the MBC/MIC with S. aureus ATCC 25923 (S. aureus ATCC 25923), against V. cholerae PC2 (V. cholerae PC2), against V. cholerae NB2 (V. cholerae NB2) and with V. cholerae CO6 (V. cholerae CO6) was 1 each time. Further, the “Selectivity Index S. aureus ATCC 25923” value in the data set with S. aureus ATCC 25923 (SI = LC50 on Vero cells / MIC) was 0.50. For the same compound, the MBC was 256 µg/mL (≈ 519 µM) with S. aureus ATCC 25923 (Staphylococcus aureus, ATCC25923, S. aureus ATCC 25923, 99.9% reduction in CFU after 24 h); 256 µg/mL (≈ 519 µM) against V. cholerae PC2 (Vibrio cholerae, V. cholerae PC2, 99.9% reduction in CFU after 24 h); 512 µg/mL (≈ 1040 µM) against V. cholerae NB2 (Vibrio cholerae, V. cholerae NB2, 99.9% reduction in CFU after 24 h); 512 µg/mL (≈ 1040 µM) against V. cholerae CO6 (Vibrio cholerae, V. cholerae CO6, 99.9% reduction in CFU after 24 h); above 512 µg/mL against V. cholerae SG24 (99.9% reduction in CFU after 24 h). Moreover, the minimum inhibitory concentration (MIC) in the data set on S. aureus ATCC 25923 (Staphylococcus aureus, ATCC25923, S. aureus ATCC 25923, 24 h at 37 °C) is 256 µg/mL (≈ 519 µM); in the data set with V. cholerae PC2 (Vibrio cholerae, V. cholerae PC2, 24 h at 37 °C, read-out: MIC) it was 256 µg/mL (≈ 519 µM); in the data set on V. cholerae NB2 (Vibrio cholerae, V. cholerae NB2, 24 h at 37 °C, read-out: MIC) it was 512 µg/mL (≈ 1040 µM); against V. cholerae CO6 (Vibrio cholerae, V. cholerae CO6, 24 h at 37 °C), 512 µg/mL (≈ 1040 µM); against V. cholerae SG24 (24 h at 37 °C), above 512 µg/mL. The “share of the studied microorganisms on which inhibitory effects were noted” value in data set [1] is 83.33%. Besides, in the data set with V. cholerae PC2 (SI = LC50 on Vero cells / MIC), the “Selectivity Index V. cholerae PC2” value is 0.50. Also, the “Selectivity Index V. cholerae NB2” value in the data set with V. cholerae NB2 (SI = LC50 on Vero cells / MIC) amounted to 0.25. Also, the “Selectivity Index V. cholerae CO6” value in the data set on V. cholerae CO6 (SI = LC50 on Vero cells / MIC) stood at 0.25. Besides, the hemolysis at 1 h, 512 μg/mL in the data set “Hemolytic assay” worked out at 20.1%.
